Target: BRAF^V600E protein (Homo sapiens, UniProt P15056, V600E)
Test: HiBiT cellular BRAF V600E degradation assay
Type: cell-based
Conditions: 24 h incubation; for DC50: A375.10 cells (HiBiT tag knocked in at N-terminal of BRAF V600E), concentration at which 50% of total cellular BRAF V600E is degraded; for Emax: read-out: HiBit 24 h Emax
Excerpt: DMEM no-phenol red medium supplemented with L-glutamine was purchased from (Corning). Fetal bovine serum (FBS) was purchased from Gibco (Grand Island, NY, USA). Nano-Glo® HiBiT Lytic Assay Buffer & Reagents were purchased from Promega (Madison, WI, USA). […] Cell culture flasks and 384-well black flat-bottom polystyrene TC-treated microplates were acquired from Corning (Corning, NY, USA).
HiBiT Cellular BRAFv^600E Degradation Assay
Prior to the assay, the A375.10 cell line is maintained in DMEM no-phenol red medium supplemented with 10% fetal bovine serum (FBS). […] Briefly, test compounds were added to the 384-well plate from a top concentration of 10 μM with 11 half log dilutions of compound, plated in duplicate. Then, 30 uL of a suspension of A375.10 cell lines was dispensed into columns 1-24 of the 384-well plates at a cell density of 7500 cells per well. The plates were kept at 37° C. with 5% CO2 for the duration of the assay (6 or 24 hr). After the desired incubation time with compound, 30 uL of Nano-Glo® HiBiT Lytic Buffer containing LgBiT protein (diluted 1:100) and luminescence substrate (diluted 1:50) were added to the cells in columns 1-23 of the assay plate. The plate was the incubated for 30 min on the bench at room temperature. Finally, HiBiT luminescence signal was acquired on EnVision™ Multilabel Reader (PerkinElmer, Santa Clara, CA, USA).
Quantification of luminescence responses measured in the presence of compound were normalized to a high signal/no degradation control (untreated cells+lytic detection reagent) and a low signal/full degradation control (untreated cells, no lytic detection reagent). Data were analyzed with a 4-parameter logistic fit to generate sigmoidal dose-response curves. […] The Emax, or maximum effect of each compound, represents the amount of residual protein remaining in the cell following compound treatment.

[1] = A375.10 cells, Emax = amount of residual protein remaining in the cell after compound treatment

Chain of BRAF^V600E protein (P15056 whole entry V600E): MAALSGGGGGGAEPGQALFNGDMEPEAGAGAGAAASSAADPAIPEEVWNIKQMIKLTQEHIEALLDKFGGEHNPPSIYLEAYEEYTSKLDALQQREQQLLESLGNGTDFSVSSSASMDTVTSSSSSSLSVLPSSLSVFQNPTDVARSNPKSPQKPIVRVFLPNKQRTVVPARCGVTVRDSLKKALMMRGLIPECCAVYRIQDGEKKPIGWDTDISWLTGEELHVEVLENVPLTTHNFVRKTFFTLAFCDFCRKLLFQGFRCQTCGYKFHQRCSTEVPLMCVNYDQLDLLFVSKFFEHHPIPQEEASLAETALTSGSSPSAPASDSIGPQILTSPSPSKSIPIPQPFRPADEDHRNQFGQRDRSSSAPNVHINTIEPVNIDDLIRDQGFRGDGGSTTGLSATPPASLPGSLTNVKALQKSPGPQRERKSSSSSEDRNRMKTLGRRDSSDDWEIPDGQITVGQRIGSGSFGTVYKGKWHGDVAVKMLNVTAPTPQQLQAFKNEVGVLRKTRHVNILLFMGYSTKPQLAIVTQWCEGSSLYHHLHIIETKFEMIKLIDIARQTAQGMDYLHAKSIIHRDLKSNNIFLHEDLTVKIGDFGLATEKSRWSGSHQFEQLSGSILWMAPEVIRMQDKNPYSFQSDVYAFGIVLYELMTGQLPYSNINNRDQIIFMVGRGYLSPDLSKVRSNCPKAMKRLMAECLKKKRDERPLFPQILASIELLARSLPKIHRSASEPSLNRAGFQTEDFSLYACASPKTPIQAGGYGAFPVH

| Compound | DC50 | Emax [1] | HiBit 24 h Emax [1] |
| --- | --- | --- | --- |
| CCN(C)S(=O)(=O)Nc1ccc(F)c(C(=O)c2c[nH]c3ncc(-c4ccc(N5C[C@H]6CC[C@@H](C5)N6C(=O)CN5CCC(c6ccc(NC7CCC(=O)NC7=O)cc6)CC5)nc4)cc23)c1F (mixture of isomers) [Example A71, 3-[3-[[Ethyl(methyl)sulfamoyl]amino]-2,6-difluorobenzoyl]-5-[6-[rac-(1R,5S)-8-[2-[4-[4-[(2,6-dioxopiperidin-3-yl)amino]phenyl]piperidin-1-yl]acetyl]-3,8-diazabicyclo[3.2.1]octan-3-yl]pyridin-3-yl]-1H-pyrrolo[2,3-b]pyridine] | 28 nM | 23% |  |
| O=C1CCC(Nc2ccc(C3CCN(CC(=O)N4[C@@H]5CCC[C@H]4CN(c4ccc(-c6cnc7[nH]cc(C(=O)c8c(F)ccc(NS(=O)(=O)N9CCCC9)c8F)c7c6)cn4)C5)CC3)cc2)C(=O)N1 (mixture of isomers) [Example A84, N-[2,4-Difluoro-3-[5-[6-[rac-(1R,5S)-9-[2-[4-[4-[(2,6-dioxopiperidin-3-yl)amino]phenyl]piperidin-1-yl]acetyl]-3,9-diazabicyclo[3.3.1]nonan-3-yl]pyridin-3-yl]-1H-pyrrolo[2,3-b]pyridine-3-carbonyl]phenyl]pyrrolidine-1-sulfonamide] | 11 nM | 11% |  |
| CCN(C)S(=O)(=O)Nc1ccc(F)c(C(=O)c2c[nH]c3ncc(-c4ccc(N5CCN(C(=O)CN6CCC(c7ccc(NC8CCC(=O)NC8=O)cc7)C(F)(F)C6)CC5)nc4)cc23)c1F (stereo in doubt) [Example 77, 5-[6-[4-[2-[(4R)-4-[4-[(2,6-dioxo-3-piperidyl)amino]phenyl]-3,3-difluoro-1-piperidyl]acetyl]piperazin-1-yl]-3-pyridyl]-3-[3-[[ethyl(methyl)sulfamoyl]amino]-2,6-difluoro-benzoyl]-1H-pyrrolo[2,3-b]pyridine] | 3.49 nM | 9.19% |  |
| CCCS(=O)(=O)Nc1ccc(F)c(C(=O)c2c[nH]c3ncc(-c4cnc(N5CCN(C(=O)CN6CCC(c7ccc(OC8CCC(=O)NC8=O)cc7)CC6)CC5)nc4)cc23)c1F (stereo not drawn) [Example 2, N-[3-[5-[2-[4-[2-[4-[4-[(2,6-dioxo-3-piperidyl)oxy]phenyl]-1-piperidyl]acetyl]piperazin-1-yl]pyrimidin-5-yl]-1H-pyrrolo[2,3-b]pyridine-3-carbonyl]-2,4-difluoro-phenyl]propane-1-sulfonamide] | 12.2 nM | 7.81% |  |
| CCCS(=O)(=O)Nc1ccc(F)c(C(=O)c2c[nH]c3ncc(-c4ccc(N5CCN(C(=O)CN6CCC(c7ccc(NC8CCC(=O)NC8=O)cc7)CC6)CC5)nc4)cc23)c1F (stereo not drawn) [Example 3, N-[3-[5-[6-[4-[2-[4-[4-[(2,6-dioxo-3-piperidyl)amino]phenyl]-1-piperidyl]acetyl]piperazin-1-yl]-3-pyridyl]-1H-pyrrolo[2,3-b]pyridine-3-carbonyl]-2,4-difluoro-phenyl]propane-1-sulfonamide] | 3.04 nM | 9.6% |  |
| CC(C)S(=O)(=O)Nc1ccc(F)c(C(=O)c2c[nH]c3ncc(-c4cnc(N5CCN(C(=O)CN6CCC(c7ccc(OC8CCC(=O)NC8=O)cc7)CC6)CC5)nc4)cc23)c1F (stereo not drawn) [Example 7, N-[3-[5-[2-[4-[2-[4-[4-[(2,6-dioxo-3-piperidyl)oxy]phenyl]-1-piperidyl]acetyl]piperazin-1-yl]pyrimidin-5-yl]-1H-pyrrolo[2,3-b]pyridine-3-carbonyl]-2,4-difluoro-phenyl]propane-2-sulfonamide] | 12.5 nM | 10.3% |  |
| CC(C)S(=O)(=O)Nc1ccc(F)c(C(=O)c2c[nH]c3ncc(-c4cnc(N5CCN(C(=O)CN6CCC(c7ccc(C8CCC(=O)NC8=O)cc7)CC6)CC5)nc4)cc23)c1F (stereo not drawn) [Example 8, N-[3-[5-[2-[4-[2-[4-[4-(2,6-dioxo-3-piperidyl)phenyl]-1-piperidyl]acetyl]piperazin-1-yl]pyrimidin-5-yl]-1H-pyrrolo[2,3-b]pyridine-3-carbonyl]-2,4-difluoro-phenyl]propane-2-sulfonamide] | 4.67 nM | 2.37% |  |

Next, values leading:

| DC50 | Emax [1] | HiBit 24 h Emax [1] | Compound |
| --- | --- | --- | --- |
| 2.73 nM | 9.38% |  | CCN(C)S(=O)(=O)Nc1ccc(F)c(C(=O)c2c[nH]c3ncc(-c4cnc(N5CCN(C(=O)CC6(O)CCN(c7ccc(C8CCC(=O)NC8=O)cc7F)CC6)CC5)nc4)cc23)c1F (racemic) [Example 158, 5-[2-[4-[2-[1-[4-(2,6-dioxo-3-piperidyl)-2-fluoro-phenyl]-4-hydroxy-4-piperidyl]acetyl]piperazin-1-yl]pyrimidin-5-yl]-3-[3-[[ethyl(methyl)sulfamoyl]amino]-2,6-difluoro-benzoyl]-1H-pyrrolo[2,3-b]pyridine] |
| 25 nM | 23.1% |  | CCN(C)S(=O)(=O)Nc1ccc(F)c(C(=O)c2c[nH]c3ncc(-c4cnc(N5CCN(C(=O)CC6CCC(c7ccc(NC8CCC(=O)NC8=O)cc7)CC6)CC5)nc4)cc23)c1F (single isomer, unassigned) [Example 35, 5-[2-[4-[2-[4-[4-[(2,6-dioxo-3-piperidyl)amino]phenyl]cyclohexyl]acetyl]piperazin-1-yl]pyrimidin-5-yl]-3-[3-[[ethyl(methyl)sulfamoyl]amino]-2,6-difluoro-benzoyl]-1H-pyrrolo[2,3-b]pyridine] |
| 21 nM |  | 16.12% | CCN(C)S(=O)(=O)Nc1ccc(F)c(C(=O)c2c[nH]c3ncc(-c4cnc(N5CCN(C(=O)CC6CCC(c7ccc(NC8CCC(=O)NC8=O)cc7)CC6)CC5)nc4)cc23)c1F (single isomer, unassigned) [Example 36, 5-[2-[4-[2-[4-[4-[(2,6-dioxo-3-piperidyl)amino]phenyl]cyclohexyl]acetyl]piperazin-1-yl]pyrimidin-5-yl]-3-[3-[[ethyl(methyl)sulfamoyl]amino]-2,6-difluoro-benzoyl]-1H-pyrrolo[2,3-b]pyridine] |
| 1.99 nM | 7.84% |  | [2H][C@@]1(c2ccc(N3CCC(O)(CC(=O)N4CCN(c5ncc(-c6cnc7[nH]cc(C(=O)c8c(F)ccc(NS(=O)(=O)N(C)CC)c8F)c7c6)cn5)CC4)CC3)c(F)c2)CCC(=O)NC1=O (single isomer, unassigned) [Example 158c] |
| 205 nM | 11.6% |  | [2H][C@]1(c2ccc(N3CCC(O)(CC(=O)N4CCN(c5ncc(-c6cnc7[nH]cc(C(=O)c8c(F)ccc(NS(=O)(=O)N(C)CC)c8F)c7c6)cn5)CC4)CC3)c(F)c2)CCC(=O)NC1=O (single isomer, unassigned) [Example 158d] |
| 2.82 nM | 8.9% |  | CCN(C)S(=O)(=O)Nc1ccc(F)c(C(=O)c2c[nH]c3ncc(-c4cnc(N5CCN(C(=O)CC6(O)CCN(c7ccc(N[C@H]8CCC(=O)NC8=O)cc7F)CC6)CC5)nc4)cc23)c1F (single isomer, unassigned) [Example 166] |
| 4 nM | 6% |  | CCN(C)S(=O)(=O)Nc1ccc(F)c(C(=O)c2c[nH]c3ncc(-c4cnc(N5CCN(C(=O)CN6CCC(c7ccc(N[C@@H]8CCC(=O)NC8=O)cc7)CC6)CC5)nc4)cc23)c1F (single isomer, unassigned) [Example A103] |
| 4 nM | 7% |  | CCN(C)S(=O)(=O)Nc1ccc(F)c(C(=O)c2c[nH]c3ncc(-c4cnc(N5CCN(C(=O)CN6CCC(c7ccc(N[C@H]8CCC(=O)NC8=O)cc7)CC6)CC5)nc4)cc23)c1F (single isomer, unassigned) [Example A111] |
| 0.79 nM | 7.81% |  | CCCS(=O)(=O)Nc1ccc(F)c(C(=O)c2c[nH]c3ncc(-c4cnc(N5CCN(C(=O)CN6CCC(c7ccc(NC8CCC(=O)NC8=O)cc7)CC6)CC5)nc4)cc23)c1F (stereo not drawn) [Example 1, N-[3-[5-[2-[4-[2-[4-[4-[(2,6-dioxo-3-piperidyl)amino]phenyl]-1-piperidyl]acetyl]piperazin-1-yl]pyrimidin-5-yl]-1H-pyrrolo[2,3-b]pyridine-3-carbonyl]-2,4-difluoro-phenyl]propane-1-sulfonamide] |
| 3.94 nM | 8.8% |  | CC(C)S(=O)(=O)Nc1ccc(F)c(C(=O)c2c[nH]c3ncc(-c4cnc(N5CCN(C(=O)CN6CCC(c7ccc(NC8CCC(=O)NC8=O)cc7)CC6)CC5)nc4)cc23)c1F (stereo not drawn) [Example 5, N-[3-[5-[2-[4-[2-[4-[4-[(2,6-dioxo-3-piperidyl)amino]phenyl]-1-piperidyl]acetyl]piperazin-1-yl]pyrimidin-5-yl]-1H-pyrrolo[2,3-b]pyridine-3-carbonyl]-2,4-difluoro-phenyl]propane-2-sulfonamide] |
| 5.59 nM | 7.96% |  | CC(C)S(=O)(=O)Nc1ccc(F)c(C(=O)c2c[nH]c3ncc(-c4cnc(N5CCN(C(=O)CN6CCC(c7ccc(NC8CCC(=O)NC8=O)cc7F)CC6)CC5)nc4)cc23)c1F (stereo not drawn) [Example 6, N-[3-[5-[2-[4-[2-[4-[4-[(2,6-dioxo-3-piperidyl)amino]-2-fluoro-phenyl]-1-piperidyl]acetyl]piperazin-1-yl]pyrimidin-5-yl]-1H-pyrrolo[2,3-b]pyridine-3-carbonyl]-2,4-difluoro-phenyl]propane-2-sulfonamide] |

Source: patent US12559492B2, “BRAF degraders” (C4 Therapeutics, Inc., priority 2020, dated 2026)
